Test results taken from patent publication US11299715B2, “Use of iNOS inhibitors to increase viral yield in culture” (priority 2013, dated 2022).

Tested on: d27-1/GFP HSV-1
Assay: Effect of valproic acid pretreatment on d27-1/GFP HSV-1 viral titer in V27 cells
Format: cell-based
Procedure: Valproic acid (Sigma-P4543) was dissolved to 1 M concentration in water. V27 cells were seeded into six well plates the day prior to infection at 6×10^5 cells/well. […] This was vortexed well and added to the wells. Plates were incubated for six hours, aspirated and infectious HSV-1 d27-1 stock added at MOI 0.15 (=cell seed density×0.15/pfu titer of HSV stock) per 1 ml of DMEM (no additives).
1 ml of infectious inoculum was added per well and incubated for 1-2 hours at 37° C., 5% CO2 incubator after which time 1.5 ml of DMEM-10% FBS was added. The plates were returned to the incubator for 70-74 hours. Free media was harvested, vortexed, and centrifuged at 1,100×g for 10 minutes at 4° C. Supernatant was transferred to a new dispensing tube, vortexed, and aliquoted. Stocks were frozen at −80° C.
V27 cells were seeded into six well plates the day prior to infection at 6×10^5 cells/well and the next day, different concentrations of VA were added to wells. Plates were incubated for 6 hrs, aspirated and ⅖ vol of media containing infectious HSV-1 d27-1 stock was added and incubated for 1-2 hours at 37° C., […] after which time ⅗ vol of DMEM 10% FBS media was added. The cultures were returned to the incubator and supernatant was harvested after 70-74 hours.

With `CCCC(CCC)C(=O)O` [VA, valproic acid] the “titer of d27-1/GFP HSV-1 compared to untreated control” value (VA 5 mM, 6 hrs pretreatment) was “slightly elevated” and the “titer of d27-1/GFP HSV-1 compared to untreated control” value (VA concentrations below and above 5 mM, pretreatment) was “inhibitory effect”.
